According to US7138233B2, “IN vitro sorting method” (Medical Research Council, priority 1997, dated 2006):

Assays:
[1] = tested on: E. coli S30 coupled in vitro transcription-translation system; assay: Self-methylation of M.EcoRI gene in coupled in vitro transcription/translation, resistance to cleavage by EcoRI; format: biochemical; settings: translation inhibited, in the presence of puromycin
Procedure: The PCR-amplified DNA-methylases genes described above are expressed in a prokaryotic in vitro coupled transcription/translation system designed for linear templates (Lesley et al., 1991). A commercial preparation of this system is used (E. coli S30 Extract System for Linear Templates; Promega) supplemented with T7 RNA polymerase and S-adenosyl methionine (SAM) at 80 μM concentration.
Methylation is assayed by measuring the resistance of DNA fragments labelled with DIG and biotin to cleavage by the cognate restriction enzyme using the Boehringer-Mannheim DIG-Biotin ELISA or with radioactively labelled DNA fragments and streptavidin coated magnetic beads. […] The absorbance (at 450 minus 650 nm) is measured after quenching with 0.5M H2SO4 (130 μl/well).
For the radioactive assay, the plasmids and PCR fragments described above are amplified by PCR using primers LMB2-Biotin (SEQ. ID. No. 9) and LMB3 and α-P^32-CTP to give P^32-labelled DNA fragments labelled at one end by biotin and which carry the T7 RNA polymerase promoter, the phage T7 gene 10 translational start site, the methyltransferase gene and the relevant M/R sites. […] The amount of radioactively-labelled DNA on the beads and in the supernatants is determined by scintillation. […]

[2] = tested on: coupled transcription-translation reaction; assay: Production of active DHFR in a 2 hour coupled transcription-translation reaction; format: biochemical, E. coli; settings: 0.1 mM, alone or in combination; 2 hour reaction

| Molecule | resistance to cleavage by EcoRI [1] | inhibition of the production of active DHFR [2] |
| --- | --- | --- |
| COc1ccc(C[C@H](N)C(=O)N[C@H]2[C@@H](O)[C@H](n3cnc4c(N(C)C)ncnc43)O[C@@H]2CO)cc1 [puromycin] | not observed |  |
| NADPH |  | does not cause any inhibition |
